Values belong to the molecule of their own block, whether it stands above or below them.
Tests used:
Type in all cases: cell-based
GSPT1 = GSPT1 (Homo sapiens, UniProt P15170+Q96SW2); assay: GSPT1 Cellular Degradation Assay (DF15-GSPT1-ePL); set-up: expressed in transfected cells; conditions: DF15-GSPT1-ePL cells, 20 hours
Text: DF15-GSPT1-ePL was used for intracellular GSPT1 protein degradation detection in form of chemiluminescent signal, which was built on a human DF15 cell line (CVCL_Y429) with conditional co-expression of chimeric GSPT1 (target) and ePL/donor (enhanced ProLabel® by DiscoverX for enzyme fragment complementation with donor-acceptor pairing). The cells used the culture medium in two arrangements for assay and maintenance. During assay, it used Core-RPMI 1640 medium with 10% Fetal Bovine Serum (Heat Inactivated) and 1× Penicillin/Streptomycin; and during passage maintenance, used added ingredients: 0.1 mM NEAA, 1 mM sodium pyruvate, 25 mM Hepes, 0.1% Pluronic F-68, 1× Glutamin, 4 μg/mL Blasticidin (selection agent). Detection was performed on a 1536 well tissue culture plate (Corning #3727) with cells seeded in 3.5 μL core-RPMI 1640 at density of 0.25 million/mL after the pre-titrated test compounds in DMSO on ECHO plate were dispensed onto the assay plate by use of ECHO (liquid handing system via acoustic energy from Labcyte). Assay incubation lasted 20 hours in 37° C. incubator with 5% CO2; then followed by 30 minutes of plate-cooling at room temperature; then detection-reagent-mix was added in 3.5 μL/well with pre-defined proportion of enzyme acceptor, substrate, and lysis buffer. Plate signal reading for luminescence on an EnVision plate reader (PerkinElmer) was conducted after 60 minutes of former step at room temperature. Raw data was collected and processed with Dotmatics (data analyzer) for test compound's potency values. The reference compound, 3-[5-(3,6-dimethoxyisoquinolin-1-yl)-1-oxo-2,3-dihydro-1H-isoindol-2-yl]piperidine-2,6-dione, at […] was used to define 75% response. Assay results for each compound were reported as DC50, the concentration giving 50% response, and Dmax, the maximum response observed with the compound.

Phospho-Rb (Ser807/811) = assay: Phospho-Retinoblastoma (pRB) Cellular Assay; conditions: Homo sapiens, OVCAR-3, NIH OVCAR3 cells, 24 hours; for IC50: concentration giving 50% response; for Emax: maximum response, reference compound at 10 μM = 100%, read-out: pRB Ymax
Method: Phospho-Retinoblastoma (pRB) Cellular Assay
NIH OVCAR3 (HTB-161, American Type Culture Collection, Manassas VA) cells were grown up to passage 10 in culture media made up of RPMI (11835-030 Gibco, Grand Island NY), 20% HI FBS (16140-071, Gibco, Grand Island NY), and 0.01 mg/mL insulin from bovine pancreas (I6634-1G, Sigma Aldrich, St. Louis, MO).
The cells were seeded in a 384-well CulturPlate (6007688, Perkin Elmer, Waltham MA) at a density of 10,000 cells/well in 20 μL of the above culture media and incubated overnight at 37° C. and 5% CO2.
The next day, cells were treated using an Echo 650 (Beckman Coulter, Indianapolis IN) acoustic dispenser with 40 nL of compounds dissolved in DMSO at the appropriate serial dilutions (10 mM to […]). Cells were then incubated for 24 hours as above.
After 24 hours elapsed, media was removed from each well and shortly after 20 μL of the following mix was added: 12 μL deionized water, 4 μL lysis buffer, 4 μL of reconstituted antibody mix, and 1:100 phosphatase inhibitor. These components belong to the Phospho-Rb (Ser807/811) Cellular Kit (64RBS807PEY, Perkin Elmer, Waltham MA).
Plates were sealed and incubated away from light at room temperature for at least 4 hours before reading them on an EnVision plate reader (Perkin Elmer, Waltham MA) according to the kit manufacturer's protocol. The reference compound, N-(5-{[(5-tert-butyl-1,3-oxazol-2-yl)methyl]sulfanyl}-1,3-thiazol-2-yl)piperidine-4-carboxamide, at 10 μM was used to define 100% response. Assay results for each compound were reported as IC50, the concentration giving 50% response, and Ymax, the maximum response observed with the compound.

Cyclin E1 = Cyclin E1 (Homo sapiens, UniProt P24864+Q96SW2); assay: Cyclin E1 Cellular Degradation Assay (MSD); set-up: endogenous in cells; host or cells: OVCAR3; conditions: for DC50 / Dmax: Cyclin E1 cellular degradation; for Dmax: maximum degradation; for Ratio of GSPT1 DC50/Cyclin E1 DC50: selectivity for degradation of Cyclin E1 over GSPT1
Sequence of Cyclin E1 (P24864 whole entry): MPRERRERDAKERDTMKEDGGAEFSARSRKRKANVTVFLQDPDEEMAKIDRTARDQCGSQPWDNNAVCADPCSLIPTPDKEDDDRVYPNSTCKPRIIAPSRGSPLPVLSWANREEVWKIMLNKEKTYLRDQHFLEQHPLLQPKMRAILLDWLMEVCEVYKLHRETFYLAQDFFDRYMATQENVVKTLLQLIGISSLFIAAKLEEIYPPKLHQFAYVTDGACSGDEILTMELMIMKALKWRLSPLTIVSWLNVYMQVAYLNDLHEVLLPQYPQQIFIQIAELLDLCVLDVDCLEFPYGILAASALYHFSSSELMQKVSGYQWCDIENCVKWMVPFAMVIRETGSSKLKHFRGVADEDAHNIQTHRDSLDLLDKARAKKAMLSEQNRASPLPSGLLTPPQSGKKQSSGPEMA
Sequence of Cyclin E1 (Q96SW2 whole entry): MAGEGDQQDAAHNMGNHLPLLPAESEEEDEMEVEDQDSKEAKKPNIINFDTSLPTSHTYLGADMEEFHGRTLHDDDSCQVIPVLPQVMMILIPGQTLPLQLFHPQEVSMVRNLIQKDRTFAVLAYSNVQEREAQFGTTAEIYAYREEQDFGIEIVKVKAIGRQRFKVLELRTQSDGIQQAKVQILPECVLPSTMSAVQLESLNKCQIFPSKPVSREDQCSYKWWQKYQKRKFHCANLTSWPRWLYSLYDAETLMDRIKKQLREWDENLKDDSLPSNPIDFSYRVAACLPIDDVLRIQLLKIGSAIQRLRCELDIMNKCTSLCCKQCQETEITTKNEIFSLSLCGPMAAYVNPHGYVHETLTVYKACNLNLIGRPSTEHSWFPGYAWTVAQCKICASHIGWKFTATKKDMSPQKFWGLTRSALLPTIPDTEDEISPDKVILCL
Sequence of Cyclin E1 (Q16531 whole entry partner): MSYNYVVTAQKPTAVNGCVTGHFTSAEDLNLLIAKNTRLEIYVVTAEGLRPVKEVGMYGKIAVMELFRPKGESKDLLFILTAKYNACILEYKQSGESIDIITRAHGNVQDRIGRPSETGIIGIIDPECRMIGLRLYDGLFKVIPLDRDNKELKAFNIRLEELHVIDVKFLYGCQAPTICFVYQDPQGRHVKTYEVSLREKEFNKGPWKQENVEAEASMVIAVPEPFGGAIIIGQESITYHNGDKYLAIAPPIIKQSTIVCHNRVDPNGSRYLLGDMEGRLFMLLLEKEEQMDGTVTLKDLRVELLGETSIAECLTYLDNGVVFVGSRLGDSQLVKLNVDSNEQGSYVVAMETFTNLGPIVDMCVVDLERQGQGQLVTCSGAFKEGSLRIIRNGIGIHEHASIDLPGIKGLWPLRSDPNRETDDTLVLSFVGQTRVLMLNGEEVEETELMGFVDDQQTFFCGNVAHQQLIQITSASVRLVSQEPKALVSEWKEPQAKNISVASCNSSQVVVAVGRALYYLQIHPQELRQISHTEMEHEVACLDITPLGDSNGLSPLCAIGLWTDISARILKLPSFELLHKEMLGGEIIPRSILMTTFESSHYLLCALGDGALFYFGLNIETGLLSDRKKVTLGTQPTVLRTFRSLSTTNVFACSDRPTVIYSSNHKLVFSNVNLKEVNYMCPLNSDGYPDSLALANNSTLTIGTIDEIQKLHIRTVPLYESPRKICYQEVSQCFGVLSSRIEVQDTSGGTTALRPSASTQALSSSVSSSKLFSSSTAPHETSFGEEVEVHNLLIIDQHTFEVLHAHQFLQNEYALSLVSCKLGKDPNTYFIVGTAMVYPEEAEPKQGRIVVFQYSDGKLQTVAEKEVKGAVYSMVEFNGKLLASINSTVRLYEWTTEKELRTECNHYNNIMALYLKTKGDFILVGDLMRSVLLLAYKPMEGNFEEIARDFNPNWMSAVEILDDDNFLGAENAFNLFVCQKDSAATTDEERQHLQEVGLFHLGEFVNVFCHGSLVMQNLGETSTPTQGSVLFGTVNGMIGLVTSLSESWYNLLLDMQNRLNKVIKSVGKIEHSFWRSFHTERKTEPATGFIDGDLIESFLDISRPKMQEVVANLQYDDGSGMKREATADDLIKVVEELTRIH
Method: Culturing cells: On Day 0, OVCAR3 cells were plated at 15,000 cells/well in 40 μL of culture medium (RPMI1640, 20% FBS, 0.01 insulin, 1% Anti/Anti) in a 384 well cell culture plate. Cell cultures were incubated for 24 hours at 37° C. and 5% CO2.
Coating MSD plates: On Day 1, rabbit anti-CCNE1 antibody (Abcam ab33911, 1 μg/mL in DPBS, […]) was dispensed to a Meso Scale Discovery plate (MSD L21XA). The MSD plate was spun briefly to ensure the solution coated the bottom of the well and incubated overnight at 4° C. On Day 2, the plate was washed 3 times with TBS +0.2% TWEEN, blocked for 1 hour with 3% MSD Blocker A (MSD R93AA-1, 30 μL/well), then washed again 3 times with TBS+0.2% TWEEN.
Treating and lysing cells: On Day 1, compounds of interest were dispensed into the cell cultures by acoustic dispensing technology. The cell cultures were then spun at 400 g for 4 minutes to disperse the compounds and incubated at 37° C. and 5% CO2 for 24 hours. After incubation, 40 μL of DPBS was added to the cell cultures to dilute the media. All liquid was gently discarded and immediately replaced with 30 μL of lysis buffer (MSD Tris Lysis buffer (MSD R60TX-2), Halt Protease inhibitor (ThermoFisher 78438), Phosphatase Inhibitor II (Sigma-Aldrich P5726), Phosphatase Inhibitor III (Sigma-Aldrich P0044), 0.02M PMSF (Sigma-Aldrich 7626), 0.1% SDS (VWR E719-100ML)). The plate was then sealed, shaken at 300 rpm at room temperature for 5 minutes, and freeze-thawed for optimum cell lysis.
Collecting data: After thawing, 25 μL of lysate was transferred to a coated MSD plate. The plate was then sealed and shaken at 300 rpm overnight in 4° C. On Day 3, the MSD plate was washed 3 times with TBS+0.2% TWEEN. Mouse anti-CCNE1 antibody (Abcam ab238081, 0.5 μg/mL in 1% MSD Blocker A, 10 μL/well) dispensed to the MSD plate, which was then sealed and shaken at room temperature for 3 hours. After the first antibody incubation, the plate was washed 3 times with TBS+0.2% TWEEN, then goat anti-mouse Sulfo-Tag antibody (MSD R32AC, 1 μg/mL in 1% MSD Blocker A, 10 μL/well) was dispensed to the MSD plate. The plate was sealed again and shaken at room temperature for 1 hour, then washed 3 times with TBS+0.2% TWEEN. After the final wash, 35 μL of 1× Read Buffer (MSD R92TC-1) was added to each well and the data was captured using the MSD plate reader. The reference compound, [2-(2,6-dioxopiperidin-3-yl)-4-methoxy-3-oxo-2,3-dihydro-1H-isoindol-5-yl]methyl N-[4-(3,4-difluorophenoxy)phenyl]carbamate, at […] was used to define […]. Assay results for each compound were reported as DC50, the concentration giving 50% response, and Dmax, the maximum response observed with the compound.

Sequence of GSPT1 (P15170 whole entry, the tested form may be a part): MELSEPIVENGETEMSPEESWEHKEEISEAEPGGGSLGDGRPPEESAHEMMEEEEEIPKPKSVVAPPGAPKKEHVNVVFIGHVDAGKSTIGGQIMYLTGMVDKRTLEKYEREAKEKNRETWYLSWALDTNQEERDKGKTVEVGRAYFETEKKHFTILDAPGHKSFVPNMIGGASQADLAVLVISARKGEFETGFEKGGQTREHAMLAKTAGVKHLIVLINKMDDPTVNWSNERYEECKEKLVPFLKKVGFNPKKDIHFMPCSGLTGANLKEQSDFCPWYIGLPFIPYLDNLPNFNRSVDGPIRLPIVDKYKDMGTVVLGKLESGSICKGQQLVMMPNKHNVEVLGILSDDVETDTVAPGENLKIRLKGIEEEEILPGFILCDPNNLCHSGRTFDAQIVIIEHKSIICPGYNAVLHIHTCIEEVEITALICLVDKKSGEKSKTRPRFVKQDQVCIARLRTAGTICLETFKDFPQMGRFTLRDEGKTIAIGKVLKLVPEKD
Sequence of GSPT1 (Q96SW2 whole entry, the tested form may be a part): as the sequence (Q96SW2 whole entry) above
Sequence of GSPT1 (Q16531 whole entry partner, the tested form may be a part): as the sequence (Q16531 whole entry partner) above

Structure (SMILES): COc1c(COC(=O)Nc2ccc(Cc3cccc(F)c3)cc2)ccc2c1C(=O)N(C1CCC(=O)NC1=O)C2 (stereo not shown) [Example 6, [2-(2,6-dioxopiperidin-3-yl)-4-methoxy-3-oxo-2,3-dihydro-1H-isoindol-5-yl]methyl N-{4-[(3-fluorophenyl)methyl]phenyl}carbamate]
DC50 (GSPT1): > 14000 nM
Dmax (GSPT1): 6%
IC50 (Phospho-Rb (Ser807/811)): 149 nM
Emax (Phospho-Rb (Ser807/811)): 117%
DC50 (Cyclin E1): 62 nM
Dmax (Cyclin E1): 94%
Ratio of GSPT1 DC50/Cyclin E1 DC50 (Cyclin E1): >226

Structure (SMILES): COc1c(COC(=O)Nc2ccc(C3(c4ccccc4)CC3)cc2)ccc2c1C(=O)N(C1CCC(=O)NC1=O)C2 (stereo not shown) [Example 7, [2-(2,6-dioxopiperidin-3-yl)-4-methoxy-3-oxo-2,3-dihydro-1H-isoindol-5-yl]methyl N-[4-(1-phenylcyclopropyl)phenyl]carbamate]
DC50 (GSPT1): > 14000 nM
Dmax (GSPT1): 21%
IC50 (Phospho-Rb (Ser807/811)): 1780 nM
Emax (Phospho-Rb (Ser807/811)): 10%
DC50 (Cyclin E1): 203 nM
Dmax (Cyclin E1): 90%
Ratio of GSPT1 DC50/Cyclin E1 DC50 (Cyclin E1): >69

Structure (SMILES): COc1c(COC(=O)Nc2ccc(N(C)c3cccc(F)c3)cc2)ccc2c1C(=O)N(C1CCC(=O)NC1=O)C2 (stereo not shown) [Example 8, [2-(2,6-dioxopiperidin-3-yl)-4-methoxy-3-oxo-2,3-dihydro-1H-isoindol-5-yl]methyl N-{4-[(3-fluorophenyl)(methyl)amino]phenyl}carbamate]
DC50 (GSPT1): > 14000 nM
Dmax (GSPT1): 15%
IC50 (Phospho-Rb (Ser807/811)): 1230 nM
Emax (Phospho-Rb (Ser807/811)): 99%
DC50 (Cyclin E1): 353 nM
Dmax (Cyclin E1): 104%
Ratio of GSPT1 DC50/Cyclin E1 DC50 (Cyclin E1): >40

Structure (SMILES): COc1c(COC(=O)Nc2ccc(Nc3cccc(F)c3)cc2)ccc2c1C(=O)N(C1CCC(=O)NC1=O)C2 (stereo not shown) [Example 9, [2-(2,6-dioxopiperidin-3-yl)-4-methoxy-3-oxo-2,3-dihydro-1H-isoindol-5-yl]methyl N-{4-[(3-fluorophenyl)amino]phenyl}carbamate]
DC50 (GSPT1): > 14000 nM
Dmax (GSPT1): 38%
IC50 (Phospho-Rb (Ser807/811)): 3010 nM
Emax (Phospho-Rb (Ser807/811)): 85%
DC50 (Cyclin E1): 648 nM
Dmax (Cyclin E1): 86%
Ratio of GSPT1 DC50/Cyclin E1 DC50 (Cyclin E1): >22

Structure (SMILES): COc1c(COC(=O)Nc2ccc(Oc3cc(F)cc(F)c3)cc2)ccc2c1C(=O)N(C1CCC(=O)NC1=O)C2 (stereo not shown) [Example 13, [2-(2,6-dioxopiperidin-3-yl)-4-methoxy-3-oxo-2,3-dihydro-1H-isoindol-5-yl]methyl N-[4-(3,5-difluorophenoxy)phenyl]carbamate]
DC50 (GSPT1): > 14000 nM
Dmax (GSPT1): 7%
IC50 (Phospho-Rb (Ser807/811)): 278 nM
Emax (Phospho-Rb (Ser807/811)): 97%
DC50 (Cyclin E1): 55 nM
Dmax (Cyclin E1): 113%
Ratio of GSPT1 DC50/Cyclin E1 DC50 (Cyclin E1): >254

Structure (SMILES): COc1c(COC(=O)Nc2ccc(Oc3ccc(F)c(Cl)c3)cc2)ccc2c1C(=O)N(C1CCC(=O)NC1=O)C2 (stereo not shown) [Example 14, [2-(2,6-dioxopiperidin-3-yl)-4-methoxy-3-oxo-2,3-dihydro-1H-isoindol-5-yl]methyl N-[4-(3-chloro-4-fluorophenoxy)phenyl]carbamate]
DC50 (GSPT1): > 14000 nM
Dmax (GSPT1): 43%
IC50 (Phospho-Rb (Ser807/811)): 363 nM
Emax (Phospho-Rb (Ser807/811)): 96%
DC50 (Cyclin E1): 59 nM
Dmax (Cyclin E1): 108%
Ratio of GSPT1 DC50/Cyclin E1 DC50 (Cyclin E1): >239

Structure (SMILES): COc1c(COC(=O)Nc2ccc(Oc3cc(F)c(F)c(F)c3)cc2F)ccc2c1C(=O)N(C1CCC(=O)NC1=O)C2 (stereo not shown) [Example 15, [2-(2,6-dioxopiperidin-3-yl)-4-methoxy-3-oxo-2,3-dihydro-1H-isoindol-5-yl]methyl N-[2-fluoro-4-(3,4,5-trifluorophenoxy)phenyl]carbamate]
DC50 (GSPT1): > 14000 nM
Dmax (GSPT1): 48%
IC50 (Phospho-Rb (Ser807/811)): 127 nM
Emax (Phospho-Rb (Ser807/811)): 109%
DC50 (Cyclin E1): 35 nM
Dmax (Cyclin E1): 109%
Ratio of GSPT1 DC50/Cyclin E1 DC50 (Cyclin E1): >395

Now from value to molecule, other results behind:

DC50 (GSPT1): > 14000 nM
Dmax (GSPT1): 54%
IC50 (Phospho-Rb (Ser807/811)): 352 nM
DC50 (Cyclin E1): 114 nM
Dmax (Cyclin E1): 106%
Ratio of GSPT1 DC50/Cyclin E1 DC50 (Cyclin E1): >123
Structure (SMILES): COc1c(COC(=O)Nc2ccc(Oc3cccc(Br)c3)cc2)ccc2c1C(=O)N(C1CCC(=O)NC1=O)C2 (stereo not shown) [Example 10, [2-(2,6-dioxopiperidin-3-yl)-4-methoxy-3-oxo-2,3-dihydro-1H-isoindol-5-yl]methyl N-[4-(3-bromophenoxy)phenyl]carbamate]
Emax (Phospho-Rb (Ser807/811)): 105%

DC50 (GSPT1): > 14000 nM
Dmax (GSPT1): 33%
IC50 (Phospho-Rb (Ser807/811)): 356 nM
DC50 (Cyclin E1): 61 nM
Dmax (Cyclin E1): 112%
Ratio of GSPT1 DC50/Cyclin E1 DC50 (Cyclin E1): >228
Structure (SMILES): COc1c(COC(=O)Nc2ccc(Oc3cccc(C)c3)cc2)ccc2c1C(=O)N(C1CCC(=O)NC1=O)C2 (stereo not shown) [Example 11, [2-(2,6-dioxopiperidin-3-yl)-4-methoxy-3-oxo-2,3-dihydro-1H-isoindol-5-yl]methyl N-[4-(3-methylphenoxy)phenyl]carbamate]
Emax (Phospho-Rb (Ser807/811)): 98%

DC50 (GSPT1): > 14000 nM
Dmax (GSPT1): 11%
IC50 (Phospho-Rb (Ser807/811)): 483 nM
DC50 (Cyclin E1): 82 nM
Dmax (Cyclin E1): 100%
Ratio of GSPT1 DC50/Cyclin E1 DC50 (Cyclin E1): >171
Structure (SMILES): COc1c(COC(=O)Nc2ccc(Oc3cc(C)cc(C)c3)cc2)ccc2c1C(=O)N(C1CCC(=O)NC1=O)C2 (stereo not shown) [Example 12, [2-(2,6-dioxopiperidin-3-yl)-4-methoxy-3-oxo-2,3-dihydro-1H-isoindol-5-yl]methyl N-[4-(3,5-dimethylphenoxy)phenyl]carbamate]
Emax (Phospho-Rb (Ser807/811)): 111%
